The subject of data set [1] is radiation-induced edema and fibrosis in the lung. In words: Mouse model of DEARE-lung: whole thoracic lung irradiation (WTLI) followed by oral genistein suspension. It counts as in vivo. Conditions: WTLI mice. The protocol:
FIG. 1A includes representative images of animal lungs stained with Masson's Trichrome. Images on the left are whole-lung, and images on the right are high magnification (10×). […] Error bars ±SEM.
Animals were treated for two, four, or six weeks.

Data set [2] deals with normal lung tissue (WTLI-irradiated). In words: A549 mouse xenograft model with WTLI: radioprotection of normal lung tissue. Conditions: A549 xenograft mice. Format: in vivo, athymic CD1 nu/nu mice. From the text:
FIG. 2A is an image of a mouse in which A549 cells were implanted subcutaneously, followed by treatment with 12.5 Gy of radiotherapy (RT). […] The white box indicates the path of radiation, and the circle indicates the tumor site.
Other nonclinical studies focused on protection of the lungs in the context of cancer radiotherapy. A549 lung cancer cells were implanted subcutaneously in athymic CD1 nu/nu mice. The location of the implant was specific, so that a single dose of WTLI would hit the tumor and the normal lung tissue (FIG. 2A). Mice were then administered a nanoparticulate genistein suspension or vehicle control by daily oral gavage for seven days prior to WTLI and continuing until the end of the study.

Data set [3] relates to therapy-induced pneumonitis and pulmonary fibrosis. The data set can be described thus: Genistein phase 1b/2a trial in NSCLC patients on chemoradiotherapy: toxicity and adverse events. It counts as in vivo, human. The protocol: FIGS. 3A and 3B are graphs plotting pulmonary adverse event incidence rates in non-small cell lung cancer (NSCLC) clinical trials.
The drug was added to patients' chemoradiotherapy regimens to reduce the incidence of therapy-induced pneumonitis and pulmonary fibrosis. […] Patients ingested the suspension once daily for one week prior to chemoradiotherapy, and also while on concurrent chemoradiotherapy for a total of six to eight weeks.

In another data set the test system is SARS-CoV-2. In words: K18-hACE2 transgenic mouse model of SARS-CoV-2 infection. It counts as in vivo.
For data set [4] the following is noted: several pharmaceutically acceptable solvents; cited from earlier work.
Data set [5] deals with NF-κB, pro-inflammatory cytokines, pro-fibrotic proteins. Conditions: cited from earlier work.
For data set [6], the system named is radiation-induced fibrosis. Conditions: rat RiED model; treatment starting two hours after radiation exposure; cited from earlier work.
[7] abbreviates: daily oral gavage from 7 days before WTLI to end of study.
Setting [8] is: K18-hACE2 Mouse Study 2, oral BID 7 d.

For the molecule `O=c1c(-c2ccc(O)cc2)coc2cc(O)cc(O)c12` [genistein, 5,7-dihydroxy-3-(4-hydroxyphenyl)-4H-chromen-4-one], the “immune infiltrate, edema and fibrosis of the lungs (histopathology and wet lung weight)” value in data set [1] (daily from 24 hours after irradiation for two, four or six weeks, vs controls) is “significantly less immune infiltrate, edema, and fibrosis of the lungs”. Besides, the “levels of fibrosis (Masson's Trichrome staining, Ashcroft scoring)” value in data set [1] (treatment started 24, 72 or 120 hours (within five days) after radiation) is “reduction in pulmonary fibrosis”. Further, the “wet lung weight (indicator of pneumonitis)” value in data set [2] (WTLI, vs vehicle) is “reduced wet lung weight”. Further, in data set [2] (setting [7]), the “congestion and cellular infiltrate, H&E” value was “reduced congestion and minimal cellular infiltrate”; the “normal lung tissue remodeling (thickening of the septal wall), H&E” value is listed as “marked reduction in normal lung tissue remodeling”. Besides, the “patients who developed pulmonary fibrosis” value in data set [3] (21 NSCLC patients treated, to date, 9% in historical study) is on record as “none”. For the same molecule, in data set [3] (NSCLC patients, one year later), the “occurrences of pulmonary fibrosis one year later” value is on record as “no occurrences of pulmonary fibrosis”. Further, the severity of dyspnea result in data set [3] (NSCLC patients, vs historical trial) is recorded as “less severe”. Also, in the data set with SARS-CoV-2 (setting [8]), the lung pathology result is reported as “improved lung pathology” and the pro-inflammatory cytokine expression result is given as “reduced pro-inflammatory cytokine expression”. Also, in the data set on SARS-CoV-2 (mouse, in vivo, po), the survival result was “increase in survival”. Moreover, in data set [4], the solubility result was “low to virtually no solubility”. Moreover, the “expression of NF-κB, pro-inflammatory cytokines (IL-1, IL-6, TNFα) and pro-fibrotic proteins (TGFβ, MMP-2, MMP-9, LDH)” value in data set [5] is given as “reduce expression”. Moreover, the fibrosis result in data set [6] is recorded as “significantly reduced fibrosis”.
